Test results taken from US7632844B2, “2-hydroxy-6-phenylphenanthridines as PDE-4 inhibitors” (Nycomed GmbH, priority 2002, dated 2009).

Target: T1, PDE4B2 (GB no. M97515) (Homo sapiens, UniProt Q07343)
T1 construct: made in house; host or cells: SF21 insect cells (baculovirus; virus made in SF9 cells)
Assay: Inhibition of PDE4B2 activity, Method b (modified SPA test, recombinant PDE expressed in SF21 cells)
Format: biochemical
Conditions: 0.5 μM cAMP, read-out: Inhibition of the PDE4 activity, −log IC50 (converted)
Experimental: The PDE4B2 (GB no. M97515) was a gift of Prof. M. Conti (Stanford University, USA). It was amplified from the original plasmid (pCMV5) via PCR with primers Rb9 (5′-[…]-3′) and Rb10 (5′-[…]-3′) and cloned into the pCR-Bac vector (Invitrogen, Groningen, NL).
The recombinant baculovirus was prepared by means of homologous recombination in SF9 insect cells. The expression plasmid was cotransfected with Bac-N-Blue (Invitrogen, Groningen, NL) or Baculo-Gold DNA (Pharmingen, Hamburg) using a standard protocol (Pharmingen, Hamburg). Wt virus-free recombinant virus supernatant was selected using plaque assay methods. After that, high-titre virus supernatant was prepared by amplifying 3 times. PDE was expressed in SF21 cells by infecting 2×10^6 cells/ml with an MOI (multiplicity of infection) between 1 and 10 in serum-free SF900 medium (Life Technologies, Paisley, UK). The cells were cultured at 28° C. for 48-72 hours, after which they were pelleted for 5-10 min at 1000 g and 4° C.
The SF21 insect cells were resuspended, at a concentration of approx. 10^7 cells/ml, in ice-cold (4° C.) homogenization buffer (20 mM Tris, pH 8.2, containing the following additions: 140 mM NaCl, 3.8 mM KCl, 1 mM EGTA, 1 mM MgCl2, 10 mM β-mercaptoethanol, 2 mM benzamidine, 0.4 mM Pefablock, 10 μM leupeptin, 10 μM pepstatin A, 5 μM trypsin inhibitor) and disrupted by ultrasonication. The homogenate was then centrifuged for 10 min at 1000×g and the supernatant was stored at −80° C. until subsequent use (see below). The protein content was determined by the Bradford method (BioRad, Munich) using BSA as the standard.
PDE4B2 activity is inhibited by the said compounds in a modified SPA (scintillation proximity assay) test, supplied by Amersham Biosciences (see procedural instructions “phosphodiesterase [3H]cAMP SPA enzyme assay, code TRKQ 7090”), carried out in 96-well microtiter plates (MTP's). The test volume is 100 μl and contains 20 mM Tris buffer (pH 7.4), 0.1 mg of BSA (bovine serum albumin)/ml, 5 mM Mg^2+, 0.5 μM cAMP (including about 50,000 cpm of [3H]cAMP), 1 μl of the respective substance dilution in DMSO and sufficient recombinant PDE (1000×g supernatant, see above) to ensure that 10-20% of the cAMP is converted under the said experimental conditions. […] After a preincubation of 5 min at 37° C., the reaction is started by adding the substrate (cAMP) and the assay is incubated for a further 15 min; after that, it is stopped by adding SPA beads (50 μl). In accordance with the manufacturer's instructions, the SPA beads had previously been resuspended in water, but were then diluted 1:3 (v/v) in water; the diluted solution also contains 3 mM IBMX to ensure a complete PDE activity stop. After the beads have been sedimented (>30 min), the MTP's are analyzed in commercially available luminescence detection devices. The corresponding IC50 values of the compounds for the inhibition of PDE activity are determined from the concentration-effect curves by means of non-linear regression.

T1 sequence (Q07343 1-564 isoform Q07343-2): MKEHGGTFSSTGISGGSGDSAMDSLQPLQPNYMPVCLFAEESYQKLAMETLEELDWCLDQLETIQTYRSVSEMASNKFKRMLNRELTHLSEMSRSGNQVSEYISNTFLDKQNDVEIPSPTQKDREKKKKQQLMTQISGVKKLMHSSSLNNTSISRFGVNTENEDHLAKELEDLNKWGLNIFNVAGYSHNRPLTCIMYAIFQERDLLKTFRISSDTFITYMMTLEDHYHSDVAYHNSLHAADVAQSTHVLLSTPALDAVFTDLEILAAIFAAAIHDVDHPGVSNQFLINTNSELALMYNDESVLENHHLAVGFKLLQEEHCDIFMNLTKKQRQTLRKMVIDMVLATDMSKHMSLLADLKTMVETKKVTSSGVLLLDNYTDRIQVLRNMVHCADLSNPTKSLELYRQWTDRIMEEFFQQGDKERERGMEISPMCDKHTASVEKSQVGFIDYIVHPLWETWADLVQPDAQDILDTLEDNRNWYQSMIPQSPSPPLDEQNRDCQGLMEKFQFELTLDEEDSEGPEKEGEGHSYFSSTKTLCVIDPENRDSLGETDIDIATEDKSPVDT

IC50	SMILES
0.182 to 6.03 nM	COc1cc2c(cc1OC)[C@H]1C[C@H](O)CC[C@H]1N=C2c1ccc(NC(C)=O)cc1 (racemic) [Compound 45, (±)-N-[4-((2RS,4aRS,10bRS)-2-Hydroxy-8,9-dimethoxy-1,2,3,4,4a,10b-hexahydro-phenanthridin-6-yl)-phenyl]-acetamide]
0.182 to 6.03 nM	COc1cc2c(cc1OC)[C@H]1C[C@H](O)CC[C@H]1N=C2c1ccc(Cl)cc1 (racemic) [Compound 46, (±)-(2RS,4aRS,10bRS)-6-(4-Chloro-phenyl)-8,9-dimethoxy-1,2,3,4,4a,10 b-hexahydro-phenanthridin-2-ol]
0.182 to 6.03 nM	CCCOc1cc(C2=N[C@@H]3CC[C@@H](O)C[C@@H]3c3cc(OC)c(OC)cc32)ccc1OC (racemic) [Compound 48, (±)-(2RS,4aRS,10bRS)-8,9-Dimethoxy-6-(4-methoxy-3-propoxy-phenyl)-1,2,3,4,4a,10b-hexahydro-phenanthridin-2-ol]
0.182 to 6.03 nM	COc1cc2c(cc1OC)[C@H]1C[C@H](O)CC[C@H]1N=C2c1ccc(OC(F)F)cc1 (racemic) [Compound 49, (±)-(2RS,4aRS,10bRS)-6-[4-(1,1-Difluoro-methoxy)-phenyl]-8,9-dimethoxy-1,2,3,4,4a,10b-hexahydro-phenanthridin-2-ol]
0.182 to 6.03 nM	CCOc1cc2c(cc1OC)C(c1ccc(C(=O)OC)cc1)=N[C@@H]1CC[C@@H](O)C[C@H]21 (racemic) [Compound 50, (±)-4-((2RS,4aRS,10bRS)-9-Ethoxy-2-hydroxy-8-methoxy-1,2,3,4,4a,10 b-hexahydro-phenanthridin-6-yl)-benzoic acid methyl ester]
0.182 to 6.03 nM	CCOc1cc2c(cc1OC)C(c1ccc(F)cc1)=N[C@@H]1CC[C@@H](O)C[C@H]21 (racemic) [Compound 51, (±)-(2RS,4aRS,10bRS)-9-Ethoxy-6-(4-fluoro-phenyl)-8-methoxy-1,2,3,4,4a,10b-hexahydro-phenanthridin-2-ol]
0.182 to 6.03 nM	CCOc1cc2c(cc1OC)C(c1ccc(C#N)cc1)=N[C@@H]1CC[C@@H](O)C[C@H]21 (racemic) [Compound 52, (±)-4-((2RS,4aRS,10bRS)-9-Ethoxy-2-hydroxy-8-methoxy-1,2,3,4,4a,10b-hexahydro-phenanthridin-6-yl)-benzonitrile]
0.182 to 6.03 nM	CCOc1cc2c(cc1OC)C(c1ccc(OCC)c(OCC3CC3)c1)=N[C@@H]1CC[C@@H](O)C[C@H]21 (racemic) [Compound 53, (±)-(2RS,4aRS,10bRS)-6-(3-Cyclopropylmethoxy-4-ethoxy-phenyl)-9-ethoxy-8-methoxy-1,2,3,4,4a,10b-hexahydro-phenanthridin-2-ol]
0.182 to 6.03 nM	CCOc1cc2c(cc1OC)C(c1ccc(OC(F)F)c(OCC3CC3)c1)=N[C@@H]1CC[C@@H](O)C[C@H]21 (racemic) [Compound 54, (±)-(2RS,4aRS,10bRS)-6-[3-Cyclopropylmethoxy-4-(1,1-difluoro-methoxy)-phenyl]-9-ethoxy-8-methoxy-1,2,3,4,4a,10b-hexahydro-phenanthridin-2-ol]
0.182 to 6.03 nM	CCOc1cc2c(cc1OC)C(c1ccc(OC(F)F)c(OC(F)F)c1)=N[C@@H]1CC[C@@H](O)C[C@H]21 (racemic) [Compound 55, (±)-(2RS,4aRS,10bRS)-6-[3,4-Bis-(1,1-difluoro-methoxy)-phenyl]-9-ethoxy-8-methoxy-1,2,3,4,4a,10b-hexahydro-phenanthridin-2-ol]
0.182 to 6.03 nM	CCOc1cc2c(cc1OC)C(c1cccc(OC(F)F)c1)=N[C@@H]1CC[C@@H](O)C[C@H]21 (racemic) [Compound 56, (±)-(2RS,4aRS,10bRS)-6-[3-(1,1-Difluoro-methoxy)-phenyl]-9-ethoxy-8-methoxy-1,2,3,4,4a,10b-hexahydro-phenanthridin-2-ol]

SMILES	IC50
CCCCOc1ccc(C2=N[C@@H]3CC[C@@H](O)C[C@@H]3c3cc(OC)c(OC)cc32)cc1 (racemic) [Compound 43, (±)-(2RS,4aRS,10bRS)-6-(4-Butoxy-phenyl)-8,9-dimethoxy-1,2,3,4,4a,10b-hexahydrophenanthridin-2-ol]	0.182 to 6.03 nM
